Patent publication US12673050B2, “Compositions and their use for the treatment of A1-antitrypsin deficiency” (Centessa Pharmaceuticals (UK) Limited, priority 2021, dated 2026)

Experiments:
human M A1AT = biological target: T1, human M A1AT (Homo sapiens, UniProt P01009); assay: A1AT cell secretion assay using HEK-M cells (ELISA); format: cell-based; details: 10 μM, 48 h
T1 construct: expressed in transfected cells; host or cells: HEK-M cells (HEK-EBNA with M A1AT plasmid)
Procedure: HEK-M cells, a human embryonic kidney cell line stably transfected with M A1AT, were plated into 96 well plates (3.0×10^5 cells/ml with 200 μl of media/well) overnight at 37° C. in a humidified atmosphere containing 5% CO2. Following incubation cells were washed with 200 μl serum-free media three times and media was replaced with serum-free media containing either vehicle, 10 μM suberanilohydroxamic acid (SAHA), (S)-1-((2-(trifluoromethyl)phenyl)sulfonyl)piperidine-3-carboxylic acid (at 10 μM) or (R)-1-((2-(trifluoromethyl)phenyl)sulfonyl)piperidine-3-carboxylic acid (at 10 μM) in replicates of six for 48 h in a 37° C. incubator in a final volume of 200 μl. At the end of the incubation step the supernatants were removed from the wells, centrifuged at 1000×g at 4° C. for 10 min and were assayed for human A1AT levels by ELISA (Human Serpin A1/α1 antitrypsin duo set ELISA, R& D Systems, DY1268) per manufacturer's instructions.
Briefly, a 96 well plate was coated with human A1AT capture antibody overnight at room temperature (1:180 dilution from stock, 100 μl final volume/well). The capture antibody was then removed and wells washed three times with 300 μl wash buffer (0.05% Tween in PBS) and then 200 μl reagent diluent (25% Tween 20 in PBS) was incubated in each well for 1 h at room temperature. Diluted samples, standards (125, 250, 500, 1000, 2000, 4000 and 8000 pg/ml A1AT) or blanks were then added to each well in duplicate and the plates were covered with a plate sealer and left at room temperature for 2 h. […] After which, 50 μl stop solution (2M H2SO4) was added and optical density (OD) of each well was read at 450 nm with 570 nm blank subtracted from each well using a microplate reader. A 4 parameter logistic curve was constructed using GraphPad Prism 7 and A1AT concentrations were determined in each sample by interpolation from a standard curve and multiplying by the appropriate dilution factor.
(§1) The amount of human A1AT secreted from transfected HEK-EBNA cells into the media was measured by ELISA. […]

[1] = Human hepatocyte stability; format: in vitro ADME; details: cryopreserved hepatocytes, mixed human hepatocyte suspension, 37° C.; for hepatocyte CLint: read-out: intrinsic clearance (CLint) in human hepatocytes
Procedure: The intrinsic clearance (CLint) and half-life of (S)-1-((2-(trifluoromethyl)phenyl)sulfonyl)piperidine-3-carboxylic acid and (R)-1-((2-(trifluoromethyl)phenyl)sulfonyl)piperidine-3-carboxylic acid were measured in a hepatocyte suspension of cryopreserved male C57BL6 mouse hepatocytes or a mixed hepatocyte suspension of cryopreserved human hepatocytes. Briefly, the compounds were incubated with hepatocyte suspensions at 37° C. over a time course and the remaining compound at each time point was assessed by mass spectrometry (UPLC-MS/MS). CLint in mouse hepatocytes was <3 μl/min/10^6 cells and in human hepatocytes was <3 μl/min/10^6 cells for both compounds.

[2] = Plasma protein binding by rapid equilibrium dialysis, human plasma; format: in vitro ADME; details: 37° C.
Procedure: The extent to which (S)-1-((2-(trifluoromethyl)phenyl)sulfonyl)piperidine-3-carboxylic acid and (R)-1-((2-(trifluoromethyl)phenyl)sulfonyl)piperidine-3-carboxylic acid bound to plasma proteins such as albumin and alpha-1 acid glycoprotein within human or mouse blood was determined by rapid equilibrium dialysis. Compounds were incubated at 5 μM for 4 hours at 37° C. Plasma protein binding in mouse plasma was 78.1% and in human plasma was 91.5% for (S)-1-((2-(trifluoromethyl)phenyl)sulfonyl)piperidine-3-carboxylic acid. Plasma protein binding in mouse plasma was 83.8% and in human plasma was 90.5% for (R)-1-((2-(trifluoromethyl)phenyl)sulfonyl)piperidine-3-carboxylic acid.

human Z A1AT = human Z A1AT (Homo sapiens, UniProt P01009, E366K); assay: A1AT cell secretion assay using HEK-Z cells (ELISA); format: cell-based; set-up: expressed in transfected cells; host or cells: HEK-Z cells (HEK-EBNA with Z A1AT plasmid); details: HEK-Z cells, 10, 33, 100 and 333 nM, 48 h
Sequence of human Z A1AT (P01009 25-418 E366K): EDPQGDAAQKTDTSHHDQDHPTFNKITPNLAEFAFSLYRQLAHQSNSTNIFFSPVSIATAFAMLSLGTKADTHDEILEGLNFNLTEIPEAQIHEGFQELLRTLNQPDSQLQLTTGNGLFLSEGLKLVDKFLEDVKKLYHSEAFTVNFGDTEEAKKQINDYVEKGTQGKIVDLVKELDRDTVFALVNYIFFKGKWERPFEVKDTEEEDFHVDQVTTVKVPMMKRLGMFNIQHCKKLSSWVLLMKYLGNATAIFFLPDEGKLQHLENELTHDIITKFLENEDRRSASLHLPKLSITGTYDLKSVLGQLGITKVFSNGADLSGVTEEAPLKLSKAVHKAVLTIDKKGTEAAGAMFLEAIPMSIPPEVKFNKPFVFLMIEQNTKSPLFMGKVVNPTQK
Procedure: HEK-Z cells, a human embryonic kidney cell line stably transfected with the human Z A1AT gene, were plated into 96 well plates (3.0×10^5 cells/ml with 200 μl of media/well) overnight at 37° C. in a humidified atmosphere containing 5% CO2. Following incubation cells were washed with 200 μl serum-free media three times and media was replaced with treatments in quadruplicate using serum-free media containing vehicle, 10 μM suberanilohydroxamic acid (SAHA), (S)-1-((2-(trifluoromethyl)phenyl)sulfonyl)piperidine-3-carboxylic acid or (R)-1-((2-(trifluoromethyl)phenyl)sulfonyl)piperidine-3-carboxylic acid (at concentrations of 10, 33, 100 and 333 nM) for 48 h in a 37° C. incubator in a final volume of 200 μl. […]
Briefly, a 96 well plate was coated with human A1AT capture antibody overnight at room temperature (1:180 dilution from stock, 100 μl final volume/well). […] After which, 50 μl stop solution (2M H2SO4) was added and optical density (OD) of each well was read at 450 nm with 570 nm blank subtracted from each well using a microplate reader. A 4 parameter logistic curve was constructed using GraphPad Prism 7 and A1AT concentrations were determined in each sample by interpolation from a standard curve and multiplying by the appropriate dilution factor.
as §1

T1 sequence (P01009 25-418): as the sequence (P01009 25-418 E366K) above, with K342E counted along it

| half-life [1] | hepatocyte CLint [1] | fraction unbound at 4 h, 5 μM [2] | Structure (SMILES) | secretion of human M A1AT into cell supernatant (human M A1AT) | secretion of human Z A1AT into cell supernatant (human Z A1AT) |
| --- | --- | --- | --- | --- | --- |
| > 7.67 h | < 3 µL/min/1e6 cells | 0.085 | O=C(O)[C@H]1CCCN(S(=O)(=O)c2ccccc2C(F)(F)F)C1 [(S)-1-((2-(Trifluoromethyl)phenyl)sulfonyl)piperidine-3-carboxylic acid] | does not stimulate secretion of human M A1AT | stimulates secretion of human Z A1AT in a dose dependent manner |
| > 7.67 h | < 3 µL/min/1e6 cells | 0.095 | O=C(O)[C@@H]1CCCN(S(=O)(=O)c2ccccc2C(F)(F)F)C1 [(R)-1-((2-(Trifluoromethyl)phenyl)sulfonyl)piperidine-3-carboxylic acid] | does not stimulate secretion of human M A1AT | stimulates secretion of human Z A1AT in a dose dependent manner |
